Reference: article PMC8495455, “Discovery of a transdermally deliverable pentapeptide for activating AdipoR1 to promote hair growth” (EMBO Molecular Medicine, 2021)
“And” between values parts separate entries of the source, which are not always exact repeats. Equal entries are not always repeated.

How the values were obtained:
Adipor1−/− mice = test: Mouse hair cycle modulation, histology and anagen induction score, Adipor1−/− mice; format: in vivo
Source text: To test whether the effect of P5 is mediated through AdipoR1 in vivo, we used Adipor1 ^−/− mice (Yamauchi et al, [2007]; Okada‐Iwabu et al, [2013]). […] Consistently, the anagen induction effects of P5 was abolished in the Adipor1 ^−/− mice (Fig 4I and J), in contrast to in WT mouse (Appendix Fig S2). […] Taken together, topical P5 treatment can accelerate hair growth through AdipoR1 in vivo.
Paraffin‐embedded mouse cutaneous back tissue was sectioned (4 μm thickness) and stained with hematoxylin and eosin. […] IF intensity was observed and recorded with a Nikon Eclipse Ni‐E fluorescence microscope (Nikon).
For the hair cycle modulation experiment, Adipoq ^−/− (stock #008195; JAX) (Ma et al, [2002]), Adipor1 ^−/− (Yamauchi et al, [2007]; Okada‐Iwabu et al, [2013]), or C57BL/6 (KOATECH) female mice was used (Müller‐Röver et al, [2001]). […] The mouse hair growth score (a value from 0 to 100 based on the skin pigmentation and hair shaft density) was monitored and documented at designated days with the experimenters being blind to the conditions, following a previous study (Chai et al, [2019]). […] On day 35, we obtained dorsal cutaneous tissue for histological analysis: anagen induction scores (calculated using an assigned arbitrary score; telogen = 1, anagen I–VI = 2–7) (Müller‐Röver et al, [2001]). […]

[1] = system: AMPK phosphorylation in ORS cells; test: Western blot p-AMPK, ORS cells; format: cell-based, human; settings: P5 0 - 50 μM, APN 2.5 μg/ml
Source text: (§1) Following the confirmation of the molecular interaction between AdipoR1 and P5, we evaluated the activation of the intracellular signaling pathway by P5. We investigated whether APN treatment on ORS and DP cells could activate AMPK or ERK signaling pathways, which are previously known to be downstream effectors of AdipoR1 (Mao et al, [2006]; Deepa & Dong, [2009]; Shibata et al, [2012]). […] Next, for determination of whether both P5 and APN mediates the phosphorylation of AMPK through AdipoR1 in ORS and DP cells, the cells were transfected with AdipoR1 siRNA (Appendix Fig S1). […] Collectively, P5 activates AMPK signaling pathway through AdipoR1 in ORS and DP cells in vitro.
(§2) Human ORS and DP cells or skin tissue were lysed (RIPA lysis buffer; #20‐188; Merck Millipore). The obtained protein was then separated by 8% SDS–PAGE and transferred to a polyvinylidene fluoride membrane (Amersham). The protein transferred membranes were incubated overnight with the specific antibodies. […] Antibody‐antigen complexes detected by enhanced chemiluminescent substrate (Thermo Fisher) were captured and quantified by Amersham imager 680 systems (GE Healthcare).

human scalp HFs = test: Ex vivo human HF organ culture, hair shaft elongation; format: cell-based; settings: 6 days, vs vehicle
Procedure: (§3) We next investigated whether P5 can reproduce the effects of APN on hair growth promotion ex vivo (Won et al, [2012]) using ex vivo human HF organ culture model. […] The Ki‐67‐positive cell portion of the matrix area in the P5‐treated HFs was higher than that in the vehicle‐treated group (Fig 3E).
The microdissected full‐length scalp HFs in anagen VI were cut at the level of sebaceous duct and then ex vivo cultured for 6 days at 37°C in a 5% CO2 atmosphere in Williams E medium (#12551032, Gibco) supplemented with hydrocortisone (10 ng/ml), insulin (10 µg/ml), L‐glutamine (2 mM), and penicillin‐streptomycin solution (1×). To avoid any potential bias in the length measurement from pseudo‐catagen progression, the total length of pigmented hair shaft of each HF was measured every three days to calculate the net length of elongated hair shaft and photographed in culture day 6 using a stereomicroscope (Olympus).

[2] = system: matrix cells of human HF bulbs; test: IF staining Ki-67 of ex vivo cultured HF bulb; format: cell-based; settings: for Numbers of Ki-67-positive cells normalized to DAPI-stained cells: ex vivo cultured HF bulb, individual HFs, n = 8
Source text: as §3
Paraffin‐embedded mouse cutaneous back tissue was sectioned (4 μm thickness) and stained with hematoxylin and eosin. For IF staining, human ORS cells cultured in FiTC‐P5, sectioned paraffin‐embedded human HFs (7 μm thickness), and sectioned paraffin‐embedded mouse cutaneous dorsal tissue or human skin tissue (5 μm thickness) were incubated at 4°C overnight with the following primary antibodies diluted in the diluent reagent (Invitrogen): phospho‐AMPK (#2535, 1:100; Cell Signaling), Ki‐67 (#M7240, 1:200; Dako), versican (#ab177480, 1:200; Abcam), or AdipoR1 antibody (#ab126611, 1:200; Abcam). After three washes with PBS, the slides were incubated with the secondary Alexa Fluor 488‐labeled anti‐mouse or rabbit IgG antibody (#ab150077, #ab150113, 1:200; Invitrogen), or Alexa Fluor 594‐labeled anti‐rabbit IgG antibody (#a11012, 1:200; Invitrogen) at 25°C for 1 h. Nuclei were counterstained with 4′,6‐diamidino‐2‐phenylindole (DAPI; #D1306, 1:1,000; Invitrogen). Microscopic observations were performed with a Nikon Eclipse Ci‐L microscope (Nikon). IF intensity was observed and recorded with a Nikon Eclipse Ni‐E fluorescence microscope (Nikon).

[3] = system: AMPK phosphorylation in DP cells; test: Western blot p-AMPK, DP cells; format: cell-based, human; settings: P5 0 - 50 μM, APN 2.5 μg/ml
Source text: as §1, §2

GLYYF [P5, GST-fused (GST-P5) in pulldown assays]
Histology / anagen induction score vs vehicle (Adipor1−/− mice): anagen HF was not found
Phosphorylation of AMPK, ORS cells [1]: concentration‐dependent phosphorylation of AMPK
Hair shaft growth ex vivo (human scalp HFs): significantly promoted hair shaft growth ex vivo
Numbers of Ki-67-positive cells normalized to DAPI-stained cells ([2]; P5 5μM): 0.25 and 0.29 and 0.26 and 0.24 and 0.3 and 0.22 and 0.21
Numbers of Ki-67-positive cells normalized to DAPI-stained cells ([2]; P5 25μM): 0.29 and 0.28 and 0.31 and 0.37 and 0.42 and 0.41 and 0.43 and 0.33
Ki-67 in matrix cells of HF bulbs ([2]; ex vivo cultured human HFs, vs vehicle): increased significantly
Phosphorylation of AMPK, DP cells [3]: concentration‐dependent phosphorylation of AMPK
